Data published in patent US20260306599A1, “TIMP3-DERIVED TEIPP NEOANTIGENS AND USES THEREOF” (priority 2023, published 2026).
Residues, ends and D or L forms follow the SMILES beside them. No end group written: not given here.

How the values were obtained:
[1] = tested on: p124-specific CD8 T cells; test: Cross-presentation of synthetic long peptides by monocyte-derived dendritic cells to p124-specific CD8 T cells; type: cell-based, human; conditions: moDC loaded with 10 μM SLP; for T cell activation by cross-presented synthetic long peptide (wild type epitope): FIG. 7; for cross-presentation of synthetic long peptide (V-variant epitope): FIG. 8
Method: HLA-A*02:01 positive PBMCs were isolated from buffy-coats from consented donors (Sanquin bloodbank, Amsterdam), using a gradient ficoll layer. PBMCs were incubated with anti-CD14 magnetic beads for 20 min at 4° C. and the CD14 positive monocytes were isolated using magnetic separation columns (miltenyi). CD14+ monocyte were cultured in RPMI medium supplemented with 10% FCS, GM-CSF (800 units/ml), and IL-4 (500 units/ml) for 6 days to generate immature monocyte-derived dendritic cells. On day 6, the immature moDCs were incubated with synthetic long peptide (10 μM, Genscript) for 2h, followed by overnight incubation with LPS (20 ng/ml). Matured and loaded moDCs (30,000 cells) were washed and co-cultured with previously established tetramer positive T cells (50,000 cells) for 16 h. Direct presentation of synthetic long peptides was tested by continuous incubation with TIMP3-specific CD8 T cell bulk for 16 h in the absence of moDC. Cytokine release by T cells was then measured in supernatants by ELISA.
The synthetic long peptide (SLP) platform is highly immunogenic and successfully applied in therapeutic SLP vaccination for HPV-induced cancers (Kenter et al. 2009; van Poelgeest et al. 2016). Therefore, the inventors examined the efficiency of cross-presentation of long versions of the TIMP3-derived signal peptide SLGDWGAEA (SEQ ID NO: 2) in dendritic cells, using natural flanking amino acids extending the amino-terminus, the carboxy-terminus, or both ends (Table 3). Monocyte-derived dendritic cells (moDC) were incubated with these three SLPs (P124 long 1-3; SEQ ID NOs: 22-24), then matured, and used as targets for the p124-specific CD8 T cell culture to assess correct processing and HLA-A2 presentation of the minimal TEIPP epitope. Despite the fact that the c-terminus was an alanine, the TIMP3-derived signal peptide SLGDWGAEA (SEQ ID NO: 2) was cross-presented by DCs from a longer peptide to p124-specific CD8 T cells (FIG. 7).
Therefore, the cross-presentation of the V-variant was evaluated as synthetic long peptide extended with natural flanking amino acids (Table 3). After uptake and processing of the five different variants (P124 long V1-3, V1-4, V1-6, V2 and V3; SEQ ID NOs: 25, 110, 111, 26 and 27), moDCs were co-cultured with the p124-specific T cell cultures and cytokine production was measured (FIG. 8). […] The lack of recognition of DCs not loaded with peptide reiterates that moDCs, despite the high expression of TIMP3 (FIG. 4), are not recognized.

[2] = tested on: TAP-negative tumor cells; test: Preferential recognition of TAP-negative over TAP-positive tumor cells by peptide-stimulated T cell cultures (TEIPP screen); type: cell-based, human; conditions: TAP-negative vs TAP-positive tumor cells
Method: TCR-transduced or bulk-cultured TEIPP T cells were tested for their ability to selectively recognize the indicated TEIPP epitope presented on TAP impaired tumors by co-culturing them for 18 hours with wild-type (wt), TAP-KO and/or TAP/TIMP3-KO tumor cells at a 5-to-1 target-to-T cell ratio, after which supernatants were harvested and analyzed for cytokine production by GM-CSF, CCL4 and/or IFNg ELISA. Unstimulated and peptide-stimulated T cells were used as negative and positive controls. For some experiments, also endogenous TEIPP antigen-expressing healthy cells such as Epstein-Barr virus (EBV) transformed B-cells, monocytes or monocyte-derived dendritic cells were included as additional controls. Test were performed in triplo in 96 well round bottom plates at 1:1 target to effector ratio.
36 peptides (designated 101 to 136) were selected for their capacity to activate CD8+ T cells present in peripheral blood mononuclear cells (PBMC) of maximal 5 healthy donors, following the protocol described earlier (Marnjt et al., 2018). […] After an in vitro expansion and enrichment of the responding T cell cultures, 18 of the 21 cases could be tested for their capacity to preferentially recognize TAP-negative tumor cells over TAP-positive tumor cells. […] These cultures were stimulated with peptide 105, 113, or 124. […]

[3] = tested on: p124-specific CD8 T cells; test: Stimulation of p124-specific T cells by exogenous short p124 peptide; type: cell-based, human; conditions: FIG. 7
Method: The peptide 124-specific T-cell culture from donor 4409 was stimulated with HLA-A*0201 matched monocyte-derived dendritic cells (MoDCs) from three different donors (indicated by MoDCs 0559, MoDC 4553 and MoDC 7401), which were loaded with (10 uM for 20-24h) the indicated synthetic long peptides (SLP) (“p124 long 1” (SEQ ID NO: 22), (“p124 long 2” (SEQ ID NO: 23), (“p124 long 3” (SEQ ID NO: 24)) or with no peptide as background control. The T cell culture incubated with 25 ug/ml the p124-peptide SLGDWGAEA served as positive control for reactivity (indicated by “T cells+p124”). The amount of interferon-gamma (IFNy) or GM-CSF produced is shown on the y-axis in pg/ml.
The synthetic long peptide (SLP) platform is highly immunogenic and successfully applied in therapeutic SLP vaccination for HPV-induced cancers (Kenter et al. 2009; van Poelgeest et al. 2016). Therefore, the inventors examined the efficiency of cross-presentation of long versions of the TIMP3-derived signal peptide SLGDWGAEA (SEQ ID NO: 2) in dendritic cells, using natural flanking amino acids extending the amino-terminus, the carboxy-terminus, or both ends (Table 3). […]

[4] = tested on: CD8+ T cells present in peripheral blood mononuclear cells (PBMC); test: In vitro expansion of peptide multimer-positive CD8+ T cells from PBMC of healthy donors; type: cell-based, human
Method: Buffy coats from healthy donors were obtained from Sanquin (Sanquin blood facility). Informed consent was given in writing by all participants. PBMCs were isolated using a ficoll gradient (density 1.077 g/ml). Approximately 500×10^6 PBMCs were incubated with PE-labeled pHLA-A*02:01 tetramers (Flex-T™ HLA-A*02:01 Monomer UVX van Biolegend) for 30 min at RT. Anti-PE magnetic beads (MACS) were used to pull out pHLA-A*02:01 tetramer-positive cells over a MACS LS column as instructed by the manufacturer (Miltenyi Biotech). T cells were cultured in complete IMDM containing 10% human serum (Sanquin blood facility) and 100 U/ml IL-2 (Proleukine; Novartis). Bulk T cells were stimulated every 2 weeks with a mixture of T cells (106), 1 μg/ml synthetic peptide (SLGDWGAEA (SEQ ID NO: 2) (TIMP3)), irradiated PBMCs (10 cells, 50 Gray), and EBV-JY (10W cells, 75 Gray) in complete T cell culture medium supplemented with 100 U/ml IL-2 in 24-well plates (Costar). Culture medium was replenished every 2-3 d with fresh complete T cell medium.
36 peptides (designated 101 to 136) were selected for their capacity to activate CD8+ T cells present in peripheral blood mononuclear cells (PBMC) of maximal 5 healthy donors, following the protocol described earlier (Marnjt et al., 2018). […]

[5] = tested on: SLGDWGAEA-specific T cells; test: Interferon-gamma production of SLGDWGAEA-specific T cells stimulated with variant peptides pulsed on HLA-A*0201 positive EBV transformed B-cells; type: cell-based, human; conditions: for Recognition (IC50): concentration of peptide for half maximal interferon-gamma production of SLGDWGAEA-specific T cells; for response of peptide 124-specific CD8+ T cell culture to variant peptide: short minimal peptides exogenously pulsed on HLA-A*0201 positive EBV transformed B-cells
Source text: The inventors investigated if exchanges into another amino acids would result in a more efficiently processed epitope. First, they examined whether these substitutions would interfere with T cell receptor interaction. The inventors exogenously pulsed the short minimal peptides of Table 4 with the C-terminal valine (V), leucine (L), isoleucine (I), or methionine (M) on HLA-A*0201 positive EBV transformed B-cells and measured the activation of the peptide 124-specific CD8+ T cell culture.

[6] = tested on: SLGDWGAEA-specific T cell cultures; test: Tetramer staining of peptide 124-specific T cell cultures; type: binding, human; conditions: three T cell cultures, donors 2028, 4409, 2752
Source text: T cell cultures of donors 2028, 4409 and 2752 were stimulated with the peptide SLGDWGAEA (SEQ ID NO:2) and analyzed via flow cytometry for the percentage of CD8+ T cells and the percentage therein of CD8+ T cells that stained positive with the HLA-A*02:01 tetramer presenting peptide SLGDWGAEA. All three SLGDWGAEA-specific T cell cultures comprise more than 97% CD8+ T cells that stained for more than 99% positive with SLGDVGAEA-loaded HLA-A*02:01 tetramers (indicated by HLA-A*02:01: SLGDWGAEA™ in FIG. 1). These SLGDWGAEA-specific T cells were used in subsequent experiments described below. In the present application and figures, peptide SLGDWGAEA is also referred to as ‘peptide 124’ or ‘p124’.
Buffy coats from healthy donors were obtained from Sanquin (Sanquin blood facility). Informed consent was given in writing by all participants. PBMCs were isolated using a ficoll gradient (density 1.077 g/ml). Approximately 500×10^6 PBMCs were incubated with PE-labeled pHLA-A*02:01 tetramers (Flex-T™ HLA-A*02:01 Monomer UVX van Biolegend) for 30 min at RT. Anti-PE magnetic beads (MACS) were used to pull out pHLA-A*02:01 tetramer-positive cells over a MACS LS column as instructed by the manufacturer (Miltenyi Biotech). T cells were cultured in complete IMDM containing 10% human serum (Sanquin blood facility) and 100 U/ml IL-2 (Proleukine; Novartis). […]

CC[C@H](C)[C@H](N)C(=O)N[C@H](C(=O)N[C@@H](CC(C)C)C(=O)N[C@@H](CC(C)C)C(=O)NCC(=O)N[C@@H](CO)C(=O)N[C@@H](Cc1c[nH]c2ccccc12)C(=O)N[C@@H](CO)C(=O)N[C@@H](CC(C)C)C(=O)NCC(=O)N[C@@H](CC(=O)O)C(=O)N[C@@H](Cc1c[nH]c2ccccc12)C(=O)NCC(=O)N[C@@H](C)C(=O)N[C@@H](CCC(=O)O)C(=O)N[C@@H](C)C(=O)N[C@@H](CS)C(=O)N[C@H](C(=O)N[C@@H](CS)C(=O)N[C@@H](CO)C(=O)N1CCC[C@H]1C(=O)N[C@@H](CO)C(=O)N[C@@H](Cc1c[nH]cn1)C(=O)O)[C@@H](C)O)C(C)C [P124 long 2] (H-IVLLGSWSLGDWGAEACTCSPSH-OH)
T cell activation by cross-presented synthetic long peptide (wild type epitope) [1]: the T cells were activated

CC(C)C[C@H](NC(=O)[C@@H](N)CO)C(=O)NCC(=O)N[C@@H](CC(=O)O)C(=O)N[C@@H](Cc1c[nH]c2ccccc12)C(=O)NCC(=O)N[C@@H](C)C(=O)N[C@@H](CCC(=O)O)C(=O)N[C@@H](C)C(=O)N[C@@H](CS)C(=O)N[C@H](C(=O)N[C@@H](CS)C(=O)N[C@@H](CO)C(=O)N1CCC[C@H]1C(=O)N[C@@H](CO)C(=O)N[C@@H](Cc1c[nH]cn1)C(=O)N1CCC[C@H]1C(=O)N[C@@H](CCC(N)=O)C(=O)N[C@@H](CC(=O)O)C(=O)N[C@@H](C)C(=O)N[C@@H](Cc1ccccc1)C(=O)N[C@@H](CS)C(=O)N[C@@H](CC(N)=O)C(=O)O)[C@@H](C)O [P124 long 3] (H-SLGDWGAEACTCSPSHPQDAFCN-OH)
T cell activation by cross-presented synthetic long peptide (wild type epitope) [1]: No recognition was observed

CC[C@H](C)[C@H](N)C(=O)N[C@H](C(=O)N[C@@H](CC(C)C)C(=O)N[C@@H](CC(C)C)C(=O)NCC(=O)N[C@@H](CO)C(=O)N[C@@H](Cc1c[nH]c2ccccc12)C(=O)N[C@@H](CO)C(=O)N[C@@H](CC(C)C)C(=O)NCC(=O)N[C@@H](CC(=O)O)C(=O)N[C@@H](Cc1c[nH]c2ccccc12)C(=O)NCC(=O)N[C@@H](C)C(=O)N[C@@H](CCC(=O)O)C(=O)N[C@H](C(=O)N[C@@H](CS)C(=O)N[C@H](C(=O)N[C@@H](CS)C(=O)N[C@@H](CO)C(=O)N1CCC[C@H]1C(=O)N[C@@H](CO)C(=O)N[C@@H](Cc1c[nH]cn1)C(=O)O)[C@@H](C)O)C(C)C)C(C)C [P124 long V2] (H-IVLLGSWSLGDWGAEVCTCSPSH-OH)
cross-presentation of synthetic long peptide (V-variant epitope) [1]: cross-presentation was lost

FLGPWPAAS [peptide 105, FLGPWPAAS, reference compound]
recognition pattern of the stimulated T cell culture (classified as TEIPP) [2]: consistent recognition pattern

LGLIVLLGSWSLGDWGAEV [P124 long V1-4, LGLIVLLGSWSLGDWGAEV]
cross-presentation of synthetic long peptide (V-variant epitope) [1]: enhanced T cell stimulation and more efficient cross-presentation

LIVLLGSWSLGDWGAEV [P124 long V1-6, LIVLLGSWSLGDWGAEV]
cross-presentation of synthetic long peptide (V-variant epitope) [1]: enhanced T cell stimulation and more efficient cross-presentation

MTPWLGLIVLLGSWSLGDWGAEA [P124 long 1]
T cell activation by cross-presented synthetic long peptide (wild type epitope) [1]: the T cells were activated

SLGDWGAEA [SLGDWGAEA]
T cell stimulation by exogenous pulsing of short peptide [3]: stimulated the T cells
donors with outgrowth of p124-specific T cells [4]: 10 donors
Recognition (IC50) ([5]; Table 1): 0.092525 µg/mL
Recognition (IC50) ([5]; Table 4): 0.092525 µg/mL
recognition pattern of the stimulated T cell culture (classified as TEIPP) [2]: consistent recognition pattern
CD8+ T cells stained positive with SLGDWGAEA-loaded HLA-A*02:01 tetramers [6]: more than 99%
CD8+ T cells stained positive with SLGDWGAEA-loaded HLA-A*02:01 tetramers ([6]; listed as peptide 124): > 99%

SLGDWGAEI [SLGDWGAEI]
Recognition (IC50) ([5]; Table 1): 0.284929 µg/mL
Recognition (IC50) ([5]; Table 4): 0.284929 µg/mL

SLGDWGAEL [SLGDWGAEL]
response of peptide 124-specific CD8+ T cell culture to variant peptide [5]: No response was observed

SLGDWGAEM [SLGDWGAEM]
response of peptide 124-specific CD8+ T cell culture to variant peptide [5]: No response was observed

SLGDWGAEV [SLGDWGAEV]
Recognition (IC50) ([5]; Table 1): 0.001471 µg/mL
Recognition (IC50) ([5]; Table 4): 0.001471 µg/mL
improvement of the stimulation of p124-specific T cells vs. c-terminal alanine peptide ([5]; specifically at the lower peptide concentration range): 61 fold

WLGLIVLLGSWSLGDWGAEV [P124 long V1-3]
cross-presentation of synthetic long peptide (V-variant epitope) [1]: less optimal
